{"source": "patent US10131652B2", "about": "“Pyrimidinyloxy benzene derivatives as herbicides” (E. I. DU PONT DE NEMOURS AND COMPANY, priority 2014, dated 2018)", "assay_type_in_all_cases": "in vivo", "key": {"[1]": {"system": "Italian ryegrass (Lolium multiflorum)", "assay": "Test B pre-/postemergence plant response", "text": "(§1) Seeds of plant species selected from bamyardgrass (Echinochloa crus-galli), kochia (Kochia scoparia), ragweed (common ragweed, Ambrosia elatior), Italian ryegrass (Lolium multiflorum), large (Lg) crabgrass (Digitaria sanguinalis), giant foxtail (Setaria faberii), momingglory (Ipomoea spp.), pigweed (Amaranthus retroflexus), velvetleaf (Abutilon theophrasti), wheat (Triticum aestivum), and corn (Zea mays) were planted into a blend of loam soil and sand and treated preemergence with a directed soil spray using test chemicals formulated in a non-phytotoxic solvent mixture which included a surfactant. At the same time, plants selected from these crop and weed species and also blackgrass (Alopecurus myosuroides), and galium (catchweed bedstraw, Galium aparine) were planted in pots containing the same blend of loam soil and sand and treated with postemergence applications of test chemicals formulated in the same manner. Plants ranged in height from 2 to 10 cm and were in the one- to two-leaf stage for the postemergence treatment. Treated plants and untreated controls were maintained in a greenhouse for approximately 10 days, after which time all treated plants were compared to untreated controls and visually evaluated for injury. Plant response ratings, summarized in Table B, are based on a 0 to 100 scale where 0 is no effect and 100 is complete control. A dash (-) response means no test result."}, "[2]": {"system": "barnyardgrass (Echinochloa crus-galli)", "assay": "Test B pre-/postemergence plant response", "text": "as §1"}, "corn (Zea mays)": {"system": "corn (Zea mays)", "assay": "Test B pre-/postemergence plant response", "text": "as §1"}, "[3]": {"system": "giant foxtail (Setaria faberii)", "assay": "Test B pre-/postemergence plant response", "text": "as §1"}, "kochia (Kochia scoparia)": {"system": "kochia (Kochia scoparia)", "assay": "Test B pre-/postemergence plant response", "text": "as §1"}, "[4]": {"system": "pigweed (Amaranthus retroflexus)", "assay": "Test B pre-/postemergence plant response", "text": "as §1"}, "[5]": {"system": "ragweed (common ragweed, Ambrosia elatior)", "assay": "Test B pre-/postemergence plant response", "text": "as §1"}, "[6]": {"system": "wheat (Triticum aestivum)", "assay": "Test B pre-/postemergence plant response", "text": "as §1"}, "[7]": {"system": "blackgrass (Alopecurus myosuroides)", "assay": "Test B postemergence plant response", "text": "(§2) At the same time, plants selected from these crop and weed species and also blackgrass (Alopecurus myosuroides), and galium (catchweed bedstraw, Galium aparine) were planted in pots containing the same blend of loam soil and sand and treated with postemergence applications of test chemicals formulated in the same manner. Plants ranged in height from 2 to 10 cm and were in the one- to two-leaf stage for the postemergence treatment. Treated plants and untreated controls were maintained in a greenhouse for approximately 10 days, after which time all treated plants were compared to untreated controls and visually evaluated for injury. Plant response ratings, summarized in Table B, are based on a 0 to 100 scale where 0 is no effect and 100 is complete control. A dash (-) response means no test result."}, "[8]": {"system": "galium (catchweed bedstraw, Galium aparine)", "assay": "Test B postemergence plant response", "text": "as §2"}, "[9]": {"settings": "31 g ai/ha, Postemergence, 0 to 100 scale, 0 no effect, 100 complete control"}, "[10]": {"settings": "125 g ai/ha, postemergence, 0 to 100 scale, 0 no effect, 100 complete control"}, "[11]": {"settings": "Preemergence, 31 g ai/ha, 0 to 100 scale (0 no effect, 100 complete control)"}, "[12]": {"settings": "Preemergence, 125 g ai/ha, 0 to 100 scale where 0 is no effect and 100 is complete control"}, "[13]": {"settings": "Postemergence, 1000 g ai/ha, 0 to 100 scale (0 no effect, 100 complete control)"}, "[14]": {"settings": "Preemergence, 1000 g ai/ha, 0 to 100 scale (0 no effect, 100 complete control)"}}, "data": [{"smiles": "FC(F)=Cc1cc(-c2c(F)cccc2Oc2ncc(Cl)cn2)no1", "note": "[Compound 91]", "values": [{"measurement": "Plant response rating, Ryegrass, Italian", "setting": "[1]; [9]", "result": 0}, {"measurement": "Plant response rating, Ryegrass, Italian", "setting": "[1]; [10]", "result": 0}, {"measurement": "Ryegrass, Italian plant response rating", "setting": "[1]; [11]", "result": 0}, {"measurement": "Plant response rating, Ryegrass, Italian", "setting": "[1]; [12]", "result": 0}, {"measurement": "Plant response rating, Barnyardgrass", "setting": "[2]; [9]", "result": 0}, {"measurement": "Plant response rating, Barnyardgrass", "setting": "[2]; [10]", "result": 0}, {"measurement": "Barnyardgrass plant response rating", "setting": "[2]; [11]", "result": 0}, {"measurement": "Plant response rating, Barnyardgrass", "setting": "[2]; [12]", "result": 0}, {"measurement": "Plant response rating, Corn", "setting": "corn (Zea mays); [9]", "result": 0}, {"measurement": "Plant response rating, Corn", "setting": "corn (Zea mays); [10]", "result": 0}, {"measurement": "Plant response rating, Foxtail, Giant", "setting": "[3]; [9]", "result": 0}, {"measurement": "Plant response rating, Foxtail, Giant", "setting": "[3]; [10]", "result": 0}, {"measurement": "Foxtail, Giant plant response rating", "setting": "[3]; [11]", "result": 0}, {"measurement": "Plant response rating, Foxtail, Giant", "setting": "[3]; [12]", "result": 0}, {"measurement": "Plant response rating, Kochia", "setting": "kochia (Kochia scoparia); [9]", "result": 0}, {"measurement": "Plant response rating, Kochia", "setting": "kochia (Kochia scoparia); [10]", "result": 0}, {"measurement": "Kochia plant response rating", "setting": "kochia (Kochia scoparia); [11]", "result": 0}, {"measurement": "Plant response rating, Kochia", "setting": "kochia (Kochia scoparia); [12]", "result": 0}, {"measurement": "Plant response rating, Pigweed", "setting": "[4]; [9]", "result": 0}, {"measurement": "Plant response rating, Pigweed", "setting": "[4]; [10]", "result": 0}, {"measurement": "Pigweed plant response rating", "setting": "[4]; [11]", "result": 0}, {"measurement": "Plant response rating, Pigweed", "setting": "[4]; [12]", "result": 0}, {"measurement": "Plant response rating, Ragweed", "setting": "[5]; [9]", "result": 0}, {"measurement": "Plant response rating, Ragweed", "setting": "[5]; [10]", "result": 0}, {"measurement": "Ragweed plant response rating", "setting": "[5]; [11]", "result": 0}, {"measurement": "Plant response rating, Ragweed", "setting": "[5]; [12]", "result": 0}, {"measurement": "Plant response rating, Wheat", "setting": "[6]; [9]", "result": 0}, {"measurement": "Plant response rating, Wheat", "setting": "[6]; [10]", "result": 0}, {"measurement": "Plant response rating, Blackgrass", "setting": "[7]; [9]", "result": 0}, {"measurement": "Plant response rating, Blackgrass", "setting": "[7]; [10]", "result": 0}, {"measurement": "Plant response rating, Galium", "setting": "[8]; [9]", "result": 0}, {"measurement": "Plant response rating, Galium", "setting": "[8]; [10]", "result": 0}]}, {"smiles": "CCOC(=O)c1cc(-c2ccccc2Oc2ncc(Cl)cn2)no1", "note": "[Compound 148]", "values": [{"measurement": "Plant response rating, Ryegrass, Italian", "setting": "[1]; [13]", "result": 0}, {"measurement": "Plant response rating, Ryegrass, Italian", "setting": "[1]; [14]", "result": 0}, {"measurement": "Plant response rating, Barnyardgrass", "setting": "[2]; [13]", "result": 10}, {"measurement": "Plant response rating, Barnyardgrass", "setting": "[2]; [14]", "result": 0}, {"measurement": "Plant response rating, Corn", "setting": "corn (Zea mays); [13]", "result": 0}, {"measurement": "Plant response rating, Foxtail, Giant", "setting": "[3]; [13]", "result": 10}, {"measurement": "Plant response rating, Foxtail, Giant", "setting": "[3]; [14]", "result": 0}, {"measurement": "Plant response rating, Kochia", "setting": "kochia (Kochia scoparia); [13]", "result": 0}, {"measurement": "Plant response rating, Kochia", "setting": "kochia (Kochia scoparia); [14]", "result": 0}, {"measurement": "Plant response rating, Pigweed", "setting": "[4]; [13]", "result": 0}, {"measurement": "Plant response rating, Pigweed", "setting": "[4]; [14]", "result": 0}, {"measurement": "Plant response rating, Ragweed", "setting": "[5]; [13]", "result": 0}, {"measurement": "Plant response rating, Wheat", "setting": "[6]; [13]", "result": 0}, {"measurement": "Plant response rating, Blackgrass", "setting": "[7]; [13]", "result": 10}, {"measurement": "Plant response rating, Galium", "setting": "[8]; [13]", "result": 0}]}, {"smiles": "Clc1cnc(Oc2ccccc2-c2ncns2)nc1", "note": "[Compound 172]", "values": [{"measurement": "Plant response rating, Ryegrass, Italian", "setting": "[1]; [13]", "result": 0}, {"measurement": "Plant response rating, Ryegrass, Italian", "setting": "[1]; [14]", "result": 0}, {"measurement": "Plant response rating, Barnyardgrass", "setting": "[2]; [13]", "result": 10}, {"measurement": "Plant response rating, Barnyardgrass", "setting": "[2]; [14]", "result": 0}, {"measurement": "Plant response rating, Corn", "setting": "corn (Zea mays); [13]", "result": 10}, {"measurement": "Plant response rating, Foxtail, Giant", "setting": "[3]; [13]", "result": 10}, {"measurement": "Plant response rating, Foxtail, Giant", "setting": "[3]; [14]", "result": 30}, {"measurement": "Plant response rating, Kochia", "setting": "kochia (Kochia scoparia); [13]", "result": 30}, {"measurement": "Plant response rating, Kochia", "setting": "kochia (Kochia scoparia); [14]", "result": 20}, {"measurement": "Plant response rating, Pigweed", "setting": "[4]; [13]", "result": 80}, {"measurement": "Plant response rating, Pigweed", "setting": "[4]; [14]", "result": 90}, {"measurement": "Plant response rating, Ragweed", "setting": "[5]; [13]", "result": 10}, {"measurement": "Plant response rating, Ragweed", "setting": "[5]; [14]", "result": 0}, {"measurement": "Plant response rating, Wheat", "setting": "[6]; [13]", "result": 0}, {"measurement": "Plant response rating, Blackgrass", "setting": "[7]; [13]", "result": 0}, {"measurement": "Plant response rating, Galium", "setting": "[8]; [13]", "result": 10}]}, {"smiles": "O=Cc1cc(-c2c(Br)cccc2Oc2ncc(Cl)cn2)no1", "note": "[Compound 195]", "values": [{"measurement": "Plant response rating, Ryegrass, Italian", "setting": "[1]; [13]", "result": 10}, {"measurement": "Plant response rating, Ryegrass, Italian", "setting": "[1]; [14]", "result": 0}, {"measurement": "Plant response rating, Barnyardgrass", "setting": "[2]; [13]", "result": 10}, {"measurement": "Plant response rating, Barnyardgrass", "setting": "[2]; [14]", "result": 40}, {"measurement": "Plant response rating, Corn", "setting": "corn (Zea mays); [13]", "result": 10}, {"measurement": "Plant response rating, Foxtail, Giant", "setting": "[3]; [13]", "result": 10}, {"measurement": "Plant response rating, Foxtail, Giant", "setting": "[3]; [14]", "result": 30}, {"measurement": "Plant response rating, Kochia", "setting": "kochia (Kochia scoparia); [13]", "result": 10}, {"measurement": "Plant response rating, Kochia", "setting": "kochia (Kochia scoparia); [14]", "result": 0}, {"measurement": "Plant response rating, Pigweed", "setting": "[4]; [13]", "result": 50}, {"measurement": "Plant response rating, Pigweed", "setting": "[4]; [14]", "result": 60}, {"measurement": "Plant response rating, Ragweed", "setting": "[5]; [13]", "result": 10}, {"measurement": "Plant response rating, Ragweed", "setting": "[5]; [14]", "result": 10}, {"measurement": "Plant response rating, Wheat", "setting": "[6]; [13]", "result": 0}, {"measurement": "Plant response rating, Blackgrass", "setting": "[7]; [13]", "result": 0}, {"measurement": "Plant response rating, Galium", "setting": "[8]; [13]", "result": 10}]}, {"smiles": "COC(=O)c1cc(-c2ccccc2Oc2ncc(Cl)cn2)no1", "note": "[Compound 235]", "values": [{"measurement": "Plant response rating, Ryegrass, Italian", "setting": "[1]; [13]", "result": 0}, {"measurement": "Plant response rating, Ryegrass, Italian", "setting": "[1]; [14]", "result": 0}, {"measurement": "Plant response rating, Barnyardgrass", "setting": "[2]; [13]", "result": 0}, {"measurement": "Plant response rating, Barnyardgrass", "setting": "[2]; [14]", "result": 0}, {"measurement": "Plant response rating, Corn", "setting": "corn (Zea mays); [13]", "result": 0}, {"measurement": "Plant response rating, Foxtail, Giant", "setting": "[3]; [13]", "result": 0}, {"measurement": "Plant response rating, Foxtail, Giant", "setting": "[3]; [14]", "result": 0}, {"measurement": "Plant response rating, Kochia", "setting": "kochia (Kochia scoparia); [13]", "result": 0}, {"measurement": "Plant response rating, Kochia", "setting": "kochia (Kochia scoparia); [14]", "result": 0}, {"measurement": "Plant response rating, Pigweed", "setting": "[4]; [13]", "result": 0}, {"measurement": "Plant response rating, Pigweed", "setting": "[4]; [14]", "result": 0}, {"measurement": "Plant response rating, Ragweed", "setting": "[5]; [13]", "result": 0}, {"measurement": "Plant response rating, Ragweed", "setting": "[5]; [14]", "result": 0}, {"measurement": "Plant response rating, Wheat", "setting": "[6]; [13]", "result": 0}, {"measurement": "Plant response rating, Blackgrass", "setting": "[7]; [13]", "result": 0}, {"measurement": "Plant response rating, Galium", "setting": "[8]; [13]", "result": 0}]}]}
